According to PubChem BioAssay AID2366 (The Scripps Research Institute Molecular Screening Center, 2010):
Active and inactive are the calls of the source.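 Rule for the calls: active = compounds picked for the later follow-up tests because of their potency and selectivity; inactive = compounds skipped in follow-up as weaker or less selective.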

target: Protein phosphatase methylesterase 1 (Homo sapiens) (UniProt Q9Y570); assay: endogenous PME-1 and serine hydrolase inhibition – cell lysate, mouse brain cytosol, FP-rhodamine, gel ABPP, selectivity assay for PME-1 inhibitor project, dose response (AID 2366)
Sequence (Q9Y570 whole entry, looked up): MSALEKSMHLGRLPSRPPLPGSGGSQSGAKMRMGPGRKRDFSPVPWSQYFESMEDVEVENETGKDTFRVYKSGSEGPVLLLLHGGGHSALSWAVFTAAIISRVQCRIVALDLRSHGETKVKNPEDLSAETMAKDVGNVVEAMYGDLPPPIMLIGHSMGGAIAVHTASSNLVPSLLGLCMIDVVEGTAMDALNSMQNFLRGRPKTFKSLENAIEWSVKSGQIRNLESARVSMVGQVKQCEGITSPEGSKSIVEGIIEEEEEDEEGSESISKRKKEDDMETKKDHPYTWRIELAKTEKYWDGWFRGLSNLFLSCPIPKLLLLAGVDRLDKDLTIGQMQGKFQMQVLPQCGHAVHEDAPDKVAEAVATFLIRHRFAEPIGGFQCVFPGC

| SMILES | IC50 |
| --- | --- |
| N#C/C(=C\c1cccn1S(=O)(=O)c1cccc(C#N)c1)S(=O)(=O)c1ccc(F)cc1 | 0.64 µM |
| N#C/C(=C\c1cccn1S(=O)(=O)c1ccccc1)S(=O)(=O)c1ccccc1 | > 20 µM (inactive) |
| CC(C)(C)S(=O)(=O)/C(C#N)=C/c1cccn1S(=O)(=O)c1ccccc1 | 6.8 µM |
| CS(=O)(=O)/C(C#N)=C/c1cccn1S(=O)(=O)c1ccccc1 | 10.8 µM |
| CS(=O)(=O)/C(C#N)=C/c1cccn1S(=O)(=O)c1ccc([N+](=O)[O-])cc1 | 3 µM |
| CS(=O)(=O)/C(C#N)=C/c1cccn1S(=O)(=O)c1c(F)c(F)c(F)c(F)c1F | > 20 µM (inactive) |

Further lines, results first:

| IC50 | SMILES |
| --- | --- |
| 3.4 µM | CC(C)(C)S(=O)(=O)/C(C#N)=C/c1cccn1S(=O)(=O)c1cccc(C#N)c1 |
| 4 µM | CS(=O)(=O)/C(C#N)=C/c1cccn1S(=O)(=O)c1ccc(C#N)cc1 |
| 2.5 µM | CS(=O)(=O)/C(C#N)=C/c1cccn1S(=O)(=O)c1cccc(C#N)c1 |
